Laboratory results: US9504729B2, “Antiangiogenic small molecules and methods of use” (The United States of America, as represented by the …, priority 2009, dated 2016)

System: angiogenesis genes in dermal microvascular endothelial cells
Assay: Real time RT-PCR of angiogenesis gene expression during endothelial tube formation
Assay type: cell-based
Settings: 1 μM SM, 24 hours

Structure (SMILES): COc1cc2cc(c1Cl)N(C)C(=O)CC(OC(=O)C(C)C)C1(C)OC1C(C)C1CC(O)(NC(=O)O1)C(OC)/C=C/C=C(\C)C2 (centres unmarked) [compound 292222]
- Log2 fold-change of gene expression: 1839: −0.1
- Log2 fold-change of gene expression: 4247: 0.5
- Log2 fold-change of gene expression: 5569: 1.5
- Log2 fold-change of gene expression: 8131: 0.1
- Log2 fold-change of gene expression: 9569: 0.2
- Log2 fold-change of gene expression: 10988: 1.0
- Log2 fold-change of gene expression: 23001: −0.8
- Log2 fold-change of gene expression: 55332: 2.4
- Log2 fold-change of gene expression: 57722: 0.0
- Log2 fold-change of gene expression: 58488: 1.0
- Log2 fold-change of gene expression: 90780: 0.1
- Log2 fold-change of gene expression: 134265: −1.3
- Log2 fold-change of gene expression: AKT1: 0.7
- Log2 fold-change of gene expression: ANGPT1: 0.9
- Log2 fold-change of gene expression: ANGPT2: −1.3
- Log2 fold-change of gene expression: ANGPTL3: 0.6
- Log2 fold-change of gene expression: ANGPTL4: 1.3
- Log2 fold-change of gene expression: ANPEP: −0.6
- Log2 fold-change of gene expression: ANTXR1: −0.2
- Log2 fold-change of gene expression: APOE: −2.2
- Log2 fold-change of gene expression: ARHGEF1: −0.9
- Log2 fold-change of gene expression: Acvrl1: 0.0
- Log2 fold-change of gene expression: Adcy4: −0.4
- Log2 fold-change of gene expression: BAL1: 0.2
- Log2 fold-change of gene expression: BMP1: 0.4
- Log2 fold-change of gene expression: C1orf54: −0.1
- Log2 fold-change of gene expression: CALD1: 0.6
- Log2 fold-change of gene expression: CCL2: 0.9
- Log2 fold-change of gene expression: CCL11: 0.2
- Log2 fold-change of gene expression: CD248: 1.3
- Log2 fold-change of gene expression: CDH5: −0.1
- Log2 fold-change of gene expression: CENTD3: −0.5
- Log2 fold-change of gene expression: CLIC1: 6.6
- Log2 fold-change of gene expression: COL4A3: 2.0
- Log2 fold-change of gene expression: COL18A1: 1.2
- Log2 fold-change of gene expression: COMT: −0.2
- Log2 fold-change of gene expression: CST4: 0.8
- Log2 fold-change of gene expression: CTTNBP2NL: 0.2
- Log2 fold-change of gene expression: CXCL3: 5.0
- Log2 fold-change of gene expression: CXCL5: 3.4
- Log2 fold-change of gene expression: CXCL6: 0.4
- Log2 fold-change of gene expression: CXCL9: 0.4
- Log2 fold-change of gene expression: CXCL10: 0.8
- Log2 fold-change of gene expression: Calcr1: −1.1
- Log2 fold-change of gene expression: Caskin2: −6.7
- Log2 fold-change of gene expression: Ccbp2: 0.4
- Log2 fold-change of gene expression: Cldn5: −0.1
- Log2 fold-change of gene expression: DGKG: 2.9
- Log2 fold-change of gene expression: DKK3: −1.1
- Log2 fold-change of gene expression: DLL4: −2.2
- Log2 fold-change of gene expression: DUT: −0.4
- Log2 fold-change of gene expression: EFNA1: 0.9
- Log2 fold-change of gene expression: EFNA3: 0.1
- Log2 fold-change of gene expression: EFNB2: −2.2
- Log2 fold-change of gene expression: EGF: 2.8
- Log2 fold-change of gene expression: ENG: −0.9
- Log2 fold-change of gene expression: EPHB4: −0.5
- Log2 fold-change of gene expression: EREG: 5.0
- Log2 fold-change of gene expression: ESAM1: −1.1
- Log2 fold-change of gene expression: EXTL3: 0.8
- Log2 fold-change of gene expression: Egf17: −1.2
- Log2 fold-change of gene expression: Ehd4: −1.4
- Log2 fold-change of gene expression: Entpd1: −5.5
- Log2 fold-change of gene expression: Epas1: −1.7
- Log2 fold-change of gene expression: EphB1: 0.9
- Log2 fold-change of gene expression: Erg: 3.7
- Log2 fold-change of gene expression: FGF1: −1.4
- Log2 fold-change of gene expression: FGF2: −0.6
- Log2 fold-change of gene expression: FGFR3: 0.8
- Log2 fold-change of gene expression: FIGF: 0.1
- Log2 fold-change of gene expression: FLT1: −0.2
- Log2 fold-change of gene expression: Fgd5: −0.8
- Log2 fold-change of gene expression: GPCR124: −1.9
- Log2 fold-change of gene expression: GRRP1: 0.1
- Log2 fold-change of gene expression: Grp116: −4.4
- Log2 fold-change of gene expression: HAND2: 1.0
- Log2 fold-change of gene expression: HGF: 1.3
- Log2 fold-change of gene expression: HIF1A: −0.7
- Log2 fold-change of gene expression: HPSE: 1.6
- Log2 fold-change of gene expression: Hspa12b: −2.2
- Log2 fold-change of gene expression: ID1: 0.0
- Log2 fold-change of gene expression: ID3: −0.2
- Log2 fold-change of gene expression: IFNA1: 0.8
- Log2 fold-change of gene expression: IFNB1: 1.1
- Log2 fold-change of gene expression: IFNG: 3.1
- Log2 fold-change of gene expression: IGF1: 6.0
- Log2 fold-change of gene expression: IL1B: 4.3
- Log2 fold-change of gene expression: IL6: 3.0
- Log2 fold-change of gene expression: IL8: 13.9
- Log2 fold-change of gene expression: ITGAV: 1.2
- Log2 fold-change of gene expression: ITGB3: 2.5
- Log2 fold-change of gene expression: Icam1: 0.5
- Log2 fold-change of gene expression: Icam2: 0.1
- Log2 fold-change of gene expression: JAG1: 1.6
- Log2 fold-change of gene expression: KDR: −1.2
